Experimental data: PubChem BioAssay AID248 (DTP/NCI, 2004)
“And” between values parts separate entries of the source, which are not always exact repeats. Equal entries are not always repeated. Toxic doses and inconclusive results are not listed. Rule as the data show it: active = T/C of 150% or more; inactive = T/C below 125%.

Test system: L1210 leukemia ip in BDF1 mice, survival T/C
Assay: NCI In Vivo Anticancer Drug Screen. Data for tumor model L1210 Leukemia (intraperitoneal) in B6D2F1 (BDF1) mice
Conditions: endpoint: mean survival time, higher = longer survival
Outline: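 Transplantable tumor model; survival measured in treated vs vehicle control mice. Value = treated/control.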

[1] = dose: 100.0 mg/kg/injection, schedule: Q04DX003 (ip), vehicle: Klucel (hydroxypropylcellulose) (HPC)
[2] = dose: 200.0 mg/kg/injection, schedule: Q04DX003 (ip), vehicle: Klucel (hydroxypropylcellulose) (HPC)
[3] = dose: 400.0 mg/kg/injection, schedule: Q04DX003 (ip), vehicle: Klucel (hydroxypropylcellulose) (HPC)
[4] = dose: 100.0 mg/kg/injection, schedule: Q01DX001 (ip), vehicle: carboxymethylcellulose (CMC)
[5] = dose: 200.0 mg/kg/injection, schedule: Q01DX001 (ip), vehicle: carboxymethylcellulose (CMC)
[6] = dose: 400.0 mg/kg/injection, schedule: Q01DX001 (ip), vehicle: carboxymethylcellulose (CMC)
[7] = dose: 100.0 mg/kg/injection, schedule: Q04DX003 (ip), vehicle: saline
[8] = dose: 200.0 mg/kg/injection, schedule: Q04DX003 (ip), vehicle: saline
[9] = dose: 400.0 mg/kg/injection, schedule: Q04DX003 (ip), vehicle: saline
[10] = dose: 100.0 mg/kg/injection, schedule: Q01DX009 (ip), vehicle: saline with Tween-80
[11] = dose: 100.0 mg/kg/injection, schedule: Q04DX002 (ip), vehicle: saline with Tween-80
[12] = dose: 200.0 mg/kg/injection, schedule: Q01DX009 (ip), vehicle: saline with Tween-80
[13] = dose: 200.0 mg/kg/injection, schedule: Q04DX002 (ip), vehicle: saline with Tween-80
[14] = dose: 400.0 mg/kg/injection, schedule: Q04DX002 (ip), vehicle: saline with Tween-80
[15] = dose: 100.0 mg/kg/injection, schedule: Q04DX003 (ip), vehicle: saline with Tween-80
[16] = dose: 200.0 mg/kg/injection, schedule: Q04DX003 (ip), vehicle: saline with Tween-80
[17] = dose: 400.0 mg/kg/injection, schedule: Q04DX003 (ip), vehicle: saline with Tween-80
[18] = dose: 100.0 mg/kg/injection, schedule: Q01DX009 (ip), vehicle: Klucel (hydroxypropylcellulose) (HPC)
[19] = dose: 200.0 mg/kg/injection, schedule: Q01DX009 (ip), vehicle: Klucel (hydroxypropylcellulose) (HPC)
[20] = dose: 400.0 mg/kg/injection, schedule: Q01DX009 (ip), vehicle: Klucel (hydroxypropylcellulose) (HPC)
[21] = dose: 400.0 mg/kg/injection, schedule: Q01DX009 (ip), vehicle: saline with Tween-80

Measured: T/C

CC(=O)Oc1c(Cl)c(Cl)c(Cl)c(Cl)c1Cl
inactive: dose: 100.0 mg/kg/injection, schedule: Q01DX009 (ip), vehicle: saline sonified 101 % of control | [1] 100 % of control | dose: 200.0 mg/kg/injection, schedule: Q01DX009 (ip), vehicle: saline sonified 107 % of control | [2] 100 % of control | dose: 400.0 mg/kg/injection, schedule: Q01DX009 (ip), vehicle: saline sonified 106 % of control | [3] 93 % of control

CN(C)C1c2cc(Cl)ccc2-c2c(N)cc(Cl)cc21 (configuration not stated)
inactive: dose: 50.0 mg/kg/injection, schedule: Q01DX001 (ip), vehicle: carboxymethylcellulose (CMC) 95 % of control | [4] 98 % of control | [5] 98 % of control | [6] 93 % of control

Nc1ccc2cc(S(=O)(=O)O)ccc2c1
inactive: [7] 96 % of control | [8] 94 % of control | [9] 94 % of control

CCCCCCCC/C=C\CCCCCCCCSC#N
inactive: dose: 25.0 mg/kg/injection, schedule: Q04DX002 (ip), vehicle: saline with Tween-80 97 % of control | dose: 50.0 mg/kg/injection, schedule: Q04DX002 (ip), vehicle: saline with Tween-80 106 % of control | [10] 97 % of control | [11] 100 % of control | [12] 97 % of control | [13] 103 % of control | [14] 87 % of control

O=C1C=C(O/C=C/C(C(F)(F)F)C(F)(F)F)C(=O)c2ccccc21
inactive: dose: 6.25 mg/kg/injection, schedule: Q01DX001 (ip), vehicle: Klucel (hydroxypropylcellulose) (HPC) 100 % of control | dose: 6.25 mg/kg/injection, schedule: Q01DX009 (ip), vehicle: Klucel (hydroxypropylcellulose) (HPC) 91 % of control | dose: 12.5 mg/kg/injection, schedule: Q01DX001 (ip), vehicle: Klucel (hydroxypropylcellulose) (HPC) 101 % of control | dose: 12.5 mg/kg/injection, schedule: Q01DX009 (ip), vehicle: Klucel (hydroxypropylcellulose) (HPC) 95 % of control | dose: 25.0 mg/kg/injection, schedule: Q01DX001 (ip), vehicle: Klucel (hydroxypropylcellulose) (HPC) 103 % of control | dose: 50.0 mg/kg/injection, schedule: Q01DX001 (ip), vehicle: Klucel (hydroxypropylcellulose) (HPC) 101 % of control | dose: 75.0 mg/kg/injection, schedule: Q01DX001 (ip), vehicle: Klucel (hydroxypropylcellulose) (HPC) 96 % of control

COc1cc2cc3c4cc(OC)c(OC)cc4cc[n+]3c(/C=C/c3cc(OC)c(OC)c(OC)c3)c2cc1OC
inactive: [11] 96 % of control and 106 % of control | [15] 94 % of control | [13] 97 % of control and 104 % of control | [16] 96 % of control | [14] 104 % of control and 92 % of control | [17] 91 % of control

CCC1c2ccc3cc(OC)ccc3c2C(=O)CC1C(=O)O (configuration not stated)
inactive: dose: 100.0 mg/kg/injection, schedule: Q01DX009 (sc), vehicle: steriod suspending solution 102 % of control | dose: 100.0 mg/kg/injection, schedule: Q04DX003 (sc), vehicle: steriod suspending solution 104 % of control | dose: 200.0 mg/kg/injection, schedule: Q01DX009 (sc), vehicle: steriod suspending solution 96 % of control | dose: 200.0 mg/kg/injection, schedule: Q04DX003 (sc), vehicle: steriod suspending solution 98 % of control | dose: 400.0 mg/kg/injection, schedule: Q01DX009 (sc), vehicle: steriod suspending solution 106 % of control | dose: 400.0 mg/kg/injection, schedule: Q04DX003 (sc), vehicle: steriod suspending solution 105 % of control

CC(=O)Nc1cc2c(cc1[N+](=O)[O-])-c1ccccc1/C2=N\O
inactive: [4] 106 % of control | [5] 94 % of control | [6] 111 % of control

CCOC(=O)C1CCCCC1
inactive: [7] 102 % of control | [8] 98 % of control | [9] 91 % of control

CC1CCC(C(C)C)/C(=N/NC(=O)c2ccccc2)C1 (configuration not stated)
inactive: [18] 98 % of control | [1] 104 % of control | [19] 93 % of control | [2] 102 % of control | [20] 86 % of control | [3] 102 % of control

Cc1cc(C)c(/C=N/O)c(C)c1
inactive: dose: 50.0 mg/kg/injection, schedule: Q01DX009 (ip), vehicle: acetone 93 % of control | dose: 100.0 mg/kg/injection, schedule: Q01DX009 (ip), vehicle: acetone 87 % of control | [7] 102 % of control | [8] 97 % of control | [9] 100 % of control

N#Cc1ncc(-c2ccccc2)nc1C#N
inactive: [10] 103 % of control | [12] 100 % of control | [21] 88 % of control

COc1ccc2cc1Oc1ccc(cc1)CC1c3c(cc(OC)c4c3Oc3cc5c(cc3O4)CCNC5C2)CCN1C (configuration not stated)
inactive: dose: 100.0 mg/kg/injection, schedule: Q04DX002 (ip), vehicle: Klucel (hydroxypropylcellulose) (HPC) 98 % of control | dose: 200.0 mg/kg/injection, schedule: Q04DX002 (ip), vehicle: Klucel (hydroxypropylcellulose) (HPC) 98 % of control | dose: 400.0 mg/kg/injection, schedule: Q04DX002 (ip), vehicle: Klucel (hydroxypropylcellulose) (HPC) 91 % of control

COc1ccc(/C=N/NC(=O)CNC(=O)c2ccc(Cl)c(Cl)c2)cc1
inactive: dose: 12.5 mg/kg/injection, schedule: Q01DX009 (ip), vehicle: saline with Tween-80 104 % of control

CCOC(=O)C(CCCCC(NC(C)=O)(C(=O)OCC)C(=O)OCC)(NC(C)=O)C(=O)OCC
inactive: [10] 92 % of control | [12] 94 % of control | [21] 92 % of control

Nc1ccc(-c2ccc3ccccc3n2)cc1
inactive: dose: 12.0 mg/kg/injection, schedule: Q01DX009 (ip), vehicle: Klucel (hydroxypropylcellulose) (HPC) 92 % of control | dose: 25.0 mg/kg/injection, schedule: Q01DX009 (ip), vehicle: Klucel (hydroxypropylcellulose) (HPC) 94 % of control | [1] 112 % of control | [2] 103 % of control

COc1ccccc1NC(=O)C(N=Nc1ccc(S(=O)(=O)Nc2onc(C)c2C)cc1)C(C)=O (configuration not stated)
inactive: dose: 75.0 mg/kg/injection, schedule: Q01DX001 (ip), vehicle: saline 92 % of control | dose: 150.0 mg/kg/injection, schedule: Q01DX001 (ip), vehicle: saline 94 % of control | dose: 300.0 mg/kg/injection, schedule: Q01DX001 (ip), vehicle: saline 87 % of control

CC(=O)c1cccc(NC(=O)Nc2ccc(CCO)cc2)c1
inactive: [18] 95 % of control | [19] 95 % of control | [20] 100 % of control

CCS(=O)(=O)/C=C/c1ccncc1
inactive: dose: 25.0 mg/kg/injection, schedule: Q04DX002 (ip), vehicle: saline 104 % of control | dose: 50.0 mg/kg/injection, schedule: Q04DX002 (ip), vehicle: saline 101 % of control | dose: 100.0 mg/kg/injection, schedule: Q04DX002 (ip), vehicle: saline 111 % of control and 113 % of control

Cc1nnnn1-c1ccc([N+](=O)[O-])cc1
inactive: [15] 101 % of control | [16] 101 % of control | [17] 93 % of control

Oc1ccc(-c2nc3ccccc3s2)cc1
inactive: dose: 100.0 mg/kg/injection, schedule: Q01DX001 (ip), vehicle: Klucel (hydroxypropylcellulose) (HPC) 105 % of control | dose: 200.0 mg/kg/injection, schedule: Q01DX001 (ip), vehicle: Klucel (hydroxypropylcellulose) (HPC) 113 % of control | dose: 400.0 mg/kg/injection, schedule: Q01DX001 (ip), vehicle: Klucel (hydroxypropylcellulose) (HPC) 111 % of control

Cc1c(C)c2c(C(=O)O)c3ccccc3nc2c2ccccc12
inactive: dose: 50.0 mg/kg/injection, schedule: Q01DX001 (ip), vehicle: alcohol 96 % of control | dose: 100.0 mg/kg/injection, schedule: Q01DX001 (ip), vehicle: alcohol 102 % of control | dose: 200.0 mg/kg/injection, schedule: Q01DX001 (ip), vehicle: alcohol 92 % of control | dose: 400.0 mg/kg/injection, schedule: Q01DX001 (ip), vehicle: alcohol 105 % of control

ON=C1CCC(=NO)CC1
inactive: dose: 100.0 mg/kg/injection, schedule: Q01DX001 (ip), vehicle: saline with Tween-80 95 % of control | dose: 200.0 mg/kg/injection, schedule: Q01DX001 (ip), vehicle: saline with Tween-80 98 % of control | dose: 400.0 mg/kg/injection, schedule: Q01DX001 (ip), vehicle: saline with Tween-80 103 % of control
